The structures appear in SMILES notation. Like-named read-outs stand apart in the source and are kept apart here.

In test [1] the test system is Paca2 human pancreatic cancer cells. The test can be described thus: Colony formation, Paca2 cells, single drugs and combinations. The test is classed as cell-based. How it is done:
(§1) Paca2 human pancreatic cancer cells, A549 human lung cancer cells, and HepG2 human liver cancer cells (American Type Culture Collection) were cultured in Dulbecco's modified Eagle's medium containing 10% fetal bovine serum, 100 units/mL penicillin, 100 μg/mL streptomycin, and 2 mM L-glutamine. […] Erlotinib was from American Custom Chemicals (San Diego, Calif.). Gemcitabine was from Eli Lilly (Indianapolis, Ind.) in an aqueous 20 mM stock solution. Sorafenib was Mass.). Unless otherwise noted all compounds were solubilized in DMSO at 10 mM and aliquoted at −20° C. Exponentially growing Paca2 pancreatic cancer cells were seeded at 1,000 cells per well in 6-well plates and allowed to attach for 24 hours. Increasing concentrations of individual drugs and those in combination were then added to the media for another 24 hours. After 24 hours exposure, the drug was removed and fresh media was added for the next 10-14 days, allowing for colony formation. Cells were fixed and stained with GIEMSA (Gibco BRL). […] Results are an average of duplicate experiments. Alternatively, MTT assays were performed 72 hours post-treatment in A549 and HepG2 cells.

Test [2] has as its system Stat3. Put plainly: Stat3-luciferase (Stat3-Luc) reporter assay, OSM-stimulated HeLa cells. The test is classed as cell-based. Conditions: for IC50: Homo sapiens, HeLa cells, compound 30 minutes before 25 ng/ml oncostatin M, read 6 hours later, read-out: IC50 in Stat3-Luc assays. How it is done:
Luciferase Reporter Assay: HeLa Cells were co-transfected with Stat3-luciferase (Stat3-Luc) reporter vector (Panomics, Fremont, Calif.) and Renilla luciferase (Promega, Madison, Wis.) using Lipofectamine 2000 as described by the manufacturer (Invitrogen). Following transfection, cells were maintained in medium containing 0.5% FBS for 24 hours. Cells were then treated with the indicated compound for 30 minutes prior to the addition of 25 ng/ml oncostatin M (OSM) (R&D Systems, Minneapolis, Minn.) to the medium. 6 hours following OSM addition, cells were harvested and levels of firefly and renilla luciferase were measured using the Dual-Glo Luciferase Assay System as described by the manufacturer (Promega).
Inhibition of Stat3 transcription activity. Compounds were tested for their ability to inhibit Stat3 transcription activation activity in cells using a Stat3-luciferase (Stat3-luc) reporter construct. Cells transfected with Stat3-luc were cultured in reduced serum medium prior to addition of indicated compound for 30 minutes. Cells were then stimulated with 25 ng/ml oncostatin M (OSM) for 6 hours followed by detection of Stat3-luc reporter activity. […] AG490, a known inhibitor of the Jak-Stat pathway, was included as a positive control for Stat3 inhibition.
A general note: Reporter assays use an easily measured gene product as a stand-in for the process of interest.

Test [3] concerns Stat3. The test can be described thus: Stat3 DNA binding assay (EMSA), HeLa nuclear extract. The test is classed as biochemical. The following applies: HeLa nuclear extract with constitutively activated Stat3. How it is done: STAT3 DNA Binding Assay: Electrophoretic mobility shift assay (EMSA) was performed as described by the manufacturer (Li-Cor Biosciences, Lincoln, Nebr.). Briefly, nuclear extracts were made from HeLa cells using the NucBuster Protein Extraction Kit as described by the manufacturer (EMD Biosciences, San Diego, Calif.). 5 μg of nuclear extract was pre-incubated with the indicated dose of indicated compound for 30 minutes prior to a 15-minute incubation with the IR700-labeled consensus Stat3 oligonucleotide. Samples were then electrophoresed on a polyacrylamide gel and directly scanned using the Odyssey infrared imaging system (Li-Cor Biosciences). For the enzyme-linked immunosorbent assay (ELISA), 5 μg of nuclear extract was preincubated with indicated concentration of indicated compound for 30 minutes prior to the addition of biotinylated oligo (5′-Biotin-[…]-3′ SEQ ID NO. 1). Stat3-DNA complexes were then captured on streptavidin coated 96 well plates (Pierce, Rockford, Ill.). Bound complexes were then incubated with Stat3 polyclonal antibody (Santa Cruz Biotechnology, Santa Cruz, Calif.) followed by anti-rabbit HRP conjugated secondary antibody (GE Healthcare, Pittsburgh, Pa.). Bound antibody was then visualized by addition of TMB substrate (Pierce) and absorbance measured at 450 nm.
Inhibition of Stat3 DNA-binding activity. Nuclear extracts from HeLa cells, which contain constitutively activated Stat3 as detected by phosphorylation at the tyrosine 705 residue, were used to perform Stat3 EMSAs to monitor Stat3 DNA binding activity. Nuclear extracts were incubated with indicated compound prior to incubation with IR700-labeled Stat3 consensus oligonucleotide. Binding of Stat3 to the oligonucleotide was monitored by gel electrophoresis and detection using a LiCor Odyssey infrared scanner.
(In EMSA bound probe runs differently from free probe, usually more slowly.)

The subject of a further test is CD44high CSCs (FaDu). The test can be described thus: Sphere assay (CSC spherogenesis). The test is classed as cell-based, human. Conditions: applied at approximately ten times their IC50 concentrations for cell death. How it is done: CD44^high cells were isolated by FACS according to the methods described in Ponti et al, with slight modification. Briefly, after trypsinization and recovery of cells for 30 minutes at 37° C. in growth media, cells were pelleted at 400×g and were resuspended in PBS with 2% FBS and 1 mM EDTA at 1×10^6 cells/mL. Cells were then incubated on ice with a 1:100 dilution of CD44-FITC (BD Biosicences, San Diego, Calif.) for 15 minutes. Alternatively, CD24-PE (BD Bioscences, San Diego, Calif.) (1:100) was utilized for negative selection. After washing three times, cells were resuspended at 2×10^6/mL and passed through a […] mesh before sorting
Sphere assay: A reliable method of measuring the self-renewal capacity of cell population if the ability to be cultured as spheres in the absence of serum or attachment. CD44^high FaDu or Hoechst side population cancer stem cells were cultured in ultra low attachment plates in cancer stem cell media (DMEM/F12, B27 Neurobasal supplement, 20 ng/ml EGF, 10 ng/ml FGF, 4 μg/ml insulin, and 0.4% BSA) to allow spheres formation. Typically, sphere formation was evaluated by microscopy after 10-14 days in culture and spheres with >50 cells were scored.
Identification of compounds that inhibit CSC spherogenesis in vitro. One of the hallmarks of cancer stem cells is their ability to self-renew. A reliable method of measuring the self-renewal capacity of cell populations is the ability to be cultured as spheres in the absence of serum or attachment. To compare the ability of compound 401 to other targeted and chemotherapeutic agents, FACS-isolated CD44^high CSCs were grown as spheres for 72 hours before being challenged with a panel of therapeutic agents. […] Tarceva, Sutent, and Gleevec were added at approximately three times their reported therapeutic concentrations.

In test [4] the test system is HepG2 human liver cancer cells. Put plainly: 72 hour MTT, HepG2 cells, single drugs and combinations. The test is classed as cell-based. The procedure: (§2) Cell Viability Determination: For 3-(4,5 dimethylthiazol-2-yl)-2,5-diphenyltetrazolium (MTT) (Sigma-Aldrich, St. Louis, Mo.) analysis, cells were plated in 96 well plates at 10,000 cells per well. 24 hours after plating, compound was added to cells at indicated doses. […] following compound addition, MTT was added to each well (0.5 mg/ml, final concentration) and plates were incubated for an additional 2 hours at 37° C. Medium was then aspirated and the formazan product was solubilized in 100 μl of isopropyl alcohol. The absorbance of each well was measured at 570 nm using a microplate reader.
as §1

In test [5] the test system is A549 human lung cancer cells. The test can be described thus: 72 hour MTT, A549 cells, single drugs and combinations. The test is classed as cell-based. The following applies: for inhibition at 2.5 µM: read-out: X (% Inhibition). How it is done: as §2, §1
The mark [6] stands for this setting: 72 hour MTT A549 cells, X alone 2.5 μM.

As for `N.N.O=C([O-])C1(C(=O)[O-])CCC1.[Pt+2]` [Carboplatin], the “X (% Inhibition)” value in test [1] (X alone 16 μM) is recorded as 43%.
Consider `CC(O)c1cc2c(o1)C(=O)c1ccccc1C2=O` (stereo not shown) [Compound 301, 2-(1-hydroxyethyl)-naphtho[2,3-b]furan-4,9-dione], for which, in the test on Stat3 [2], the IC50 is roughly 2000 nM.
In the case of `CC(=O)c1cc2c(o1)C(=O)c1cc(Cl)ccc1C2=O` [Compound 416, 2-Acetyl-7-Chloro-naphtho[2,3-b]furan-4,9-dione], the “Inhibition of Stat3 DNA-binding activity (in words)” value in the test on Stat3 [3] is recorded as “can inhibit”. Also, in the test with Stat3 [2], the IC50 is roughly 750 nM.
As for `CC(=O)c1cc2c(o1)C(=O)c1cc(F)ccc1C2=O` [Compound 418, 2-Acetyl-7-Fluoro-naphtho[2,3-b]furan-4,9-dione], in the test on Stat3 [3], the “Inhibition of Stat3 DNA-binding activity (in words)” value is listed as “can inhibit”. Moreover, the IC50 in the test on Stat3 [2] was roughly 750 nM.
With `O=C(c1ccccc1)c1cc2cc3ccccc3cc2s1` [Compound 1001, reference compound], in the test with Stat3 [2] (at a much higher concentration (FIG. 4, right panel)), the “Inhibition of OSM-stimulated Stat3 reporter activity (in words)” value was “did not inhibit”.
With `CC(=O)O[C@@]12CO[C@@H]1C[C@H](O)[C@@]1(C)C(=O)[C@H](O)C3=C(C)[C@@H](OC(=O)[C@H](O)[C@@H](NC(=O)OC(C)(C)C)c4ccccc4)C[C@@](O)([C@@H](OC(=O)c4ccccc4)[C@H]21)C3(C)C` [Docetaxel, reference compound], in the test on CD44high CSCs (FaDu), the “Effect on CSC sphere proliferation” value is on record as “resistant”. Besides, the inhibition at 0.00033 µM in test [1] (Homo sapiens, PaCa-2, X alone 0.33 nM) amounted to 48%.
As to `COc1cccc2c1C(=O)c1c(O)c3c(c(O)c1C2=O)C[C@@](O)(C(=O)CO)C[C@@H]3O[C@H]1C[C@H](N)[C@H](O)[C@H](C)O1` [Doxorubicin], the “Effect on CSC sphere proliferation” value in the test on CD44high CSCs (FaDu) is listed as “resistant”. Further, the inhibition at 0.0125 µM in test [4] (X alone 12.5 nM) amounted to 23%; in test [5] (72 hour MTT A549 cells, X alone 12.5 nM), 29%. The inhibition at 0.016 µM in test [1] (Homo sapiens, PaCa-2, X alone 16 nM) came to 89%.
`C#Cc1cccc(Nc2ncnc3cc(OCCOC)c(OCCOC)cc23)c1` [Erlotinib]: in test [1] (Homo sapiens, PaCa-2, X alone 16 μM), the inhibition at 16 µM stood at 26%. Moreover, the inhibition at 2.5 µM in test [5] (A549, 72 h) is 43%.
`COc1cc([C@@H]2c3cc4c(cc3[C@@H](O[C@@H]3O[C@@H]5CO[C@@H](C)O[C@H]5[C@H](O)[C@H]3O)[C@H]3COC(=O)[C@H]23)OCO4)cc(OC)c1O` [Etoposide]: the inhibition at 0.66 µM in test [1] (Homo sapiens, PaCa-2, X alone 660 nM) was found to be 58%.
As to `Nc1ccn([C@@H]2O[C@H](CO)[C@@H](O)C2(F)F)c(=O)n1` [Gemcitabine], the inhibition at 0.033 µM in test [1] (Homo sapiens, PaCa-2, X alone 33 nM) amounted to 36%.
Consider `CS(=O)(=O)CCNCc1ccc(-c2ccc3ncnc(Nc4ccc(OCc5cccc(F)c5)c(Cl)c4)c3c2)o1` [Lapatinib], for which the inhibition at 6.75 µM in test [1] (Homo sapiens, PaCa-2, X alone 6.75 μM) turned out to be 27%. For the same compound, in test [5] (setting [6]), the inhibition at 2.5 µM was 66%.
In the case of `CNC(=O)c1cc(Oc2ccc(NC(=O)Nc3ccc(Cl)c(C(F)(F)F)c3)cc2)ccn1` [Sorafenib], in test [4] (X alone 625 nM), the inhibition at 0.625 µM was determined as 34%. The inhibition at 2.5 µM in test [4] (X alone 2.5 μM) worked out at 51%; in test [5] (setting [6]), 40%. Further, in test [1] (Homo sapiens, PaCa-2, X alone 2 μM), the inhibition at 2 µM was 66%.
As for `CCN(CC)CCNC(=O)c1c(C)[nH]c(/C=C2\C(=O)Nc3ccc(F)cc32)c1C` [Sunitinib], the inhibition at 12 µM in test [1] (Homo sapiens, PaCa-2, X alone 12 μM) is 52%. For the same compound, in test [5] (setting [6]), the inhibition at 2.5 µM is 75%.

The IC50 is the midpoint of a concentration-inhibition curve. The term inhibition denotes the change of the read-out against control, counted positive when it falls.

The record behind these values is patent US10377731B2, “Compositions and methods for cancer treatment” (Boston Biomedical, Inc., priority 2007, dated 2019).
